From PMC10534827 (Pharmaceuticals, 2023) come the findings set out here.

A short description of experiment [1]: DPPH radical scavenging activity. The note with it: 300 μL of 5 mM compound in MeOH, 30 min, 517 nm. In general terms: Loss of DPPH colour is used to gauge radical scavenging.
Description: The DPPH (2,2-diphenyl-1-picryl-hydrazyl-hydrate) free radical scavenging activity method is based on the neutralization of the DPPH radical by an antioxidant.
Free radical scavenging activity was measured using DPPH method [69, 70] with slight modification. Here, 300 μL of 5 mM solutions of tested compounds in MeOH were added to 2 mL methanolic solution of DPPH (2 mg/mL). […] Results were evaluated as percentage scavenging of radical:DPPH radical scavenging activity (%) = ((Abscontr. − Abssample)/Abscontr.) ×100, where Abscontr. is the absorbance of DPPH radical with 300 μL MeOH, Abssample is the absorbance of DPPH radical solution mixed with sample. BHT was used as positive control.
For a further experiment, the system named is CCL-1 cells. In words: MTT cytotoxicity, CCL-1 normal fibroblasts. Format: cell-based, murine. The note with it: Mus musculus, Fibroblast; MTT, 72 h exposure; read-out: CCL-1 IC50.
A further experiment relates to SH-SY5Y cells. Description: MTT cytotoxicity, SH-SY5Y. Format: cell-based, human. The note with it: Homo sapiens, SH-SY5Y; MTT, 72 h exposure; read-out: SH-SY5Y IC50.
A short description of experiment [2]: ABTS radical scavenging assay. The note with it: 734 nm after 5 min.
Description: These compounds were also tested for their antioxidant activities by using the ABTS [2,2′-azinobis (3-ethylbenzothiazoline-6-sulfonic acid)] cation radical decolorization method (Table 4). The BHT [41] was used for comparison. The ABTS cation radical is produced by oxidation of the ABTS molecule with strong oxidizing agents, such as potassium persulfate in water.
For ABTS assay, the procedure followed the method of Arnao et al. [71] with some modifications. […] The working solution was then prepared by mixing the two stock solutions in equal quantities and allowing them to react for 14 h at room temperature in the dark. […] A fresh ABTS solution was prepared for each assay. […] The ABTS scavenging capacity of the compound was calculated as follows:ABTS radical scavenging activity (%) = ((Abscontr. − Abssample)/Abscontr.) ×100, where Abscontr. is the absorbance of DPPH radical with 300 μL MeOH, Abssample is the absorbance of DPPH radical solution mixed with the sample. […] BHT was used as positive control.
Experiment [3] in a line: Ferric reducing antioxidant power (FRAP). Conditions: 150 μL of 5 mM compound, 30 min, 593 nm, Trolox equivalent.
Another experiment relates to Neuro-2a cells. Description: MTT cytotoxicity, Neuro-2a. The format is cell-based, murine. Conditions: Mus musculus, N2a; MTT, 72 h exposure; read-out: Neuro-2a IC50.
Experiment [4] addresses T1, Acetylcholinesterase from Electrophorus electricus (Electrophorus electricus, UniProt O42275).
T1 construct: purchased Sigma-Aldrich, Hamburg, Germany
In words: biochemical. The format is biochemical. Conditions: for inhibition at 1000 µM: 1 mM solution of the tested compound, read-out: Activity [%] (inhibition percentage of AChE); for IC50: mean ± SD of three experiments, read-out: AChE IC50.
Description: (§1) AChE and BChE inhibitory activity was measured using the microplate assay described by Ellman et al. [68] with the modifications added by López et al. [36]. The compounds were tested at concentrations between 10^−3 and 10^−8 M. First, all compounds were dissolved in 1% DMSO in a concentration of 1 mg/mL.
(§2) Incubation of the plates was performed at room temperature for 30 min. Then, 100 μL of substrate solution were added to start the enzymatic reaction. […] Enzyme activity was calculated as an inhibition percentage compared to an assay including buffer instead of an inhibitor. […] All data were analyzed with the software package Prism 3 (Graph Pad Inc., San Diego, CA, USA).

The nature of experiment [5]: Lipid peroxidation in linoleic acid system, FTC method. The note with it: 10 mM compound, 500 nm.
Description: The antioxidant activity of studied compounds against lipid peroxidation was measured through ammonium thiocyanate assay as described by Takao et al. [66] with some modifications. […] A 10 μL aliquot of the reaction solution was then added to 200 μL of 70% (v/v) ethanol and 10 μL of 30% (w/v) ammonium thiocyanate. […] Aliquots were assayed every 24 h until the day after the absorbance of the control solution (without compound) reached maximum value. BHT (10 mM) was used as positive control.
For experiment [6], the target named is T2, butyrylcholinesterase from equine serum (Equus caballus, UniProt P81908).
T2 construct: butyrylcholinesterase from equine serum; purchased Sigma-Aldrich, Hamburg, Germany; host or cells: equine serum
Description: biochemical. Conditions: for inhibition at 1000 µM: 1 mM solution of the tested compound, read-out: Activity [%] (inhibition percentage of BChE); for IC50: mean ± SD of three experiments, read-out: BChE IC50.
Description: as §1, §2

Bounds are passed on as bounds.

T1 sequence (O42275 24-633): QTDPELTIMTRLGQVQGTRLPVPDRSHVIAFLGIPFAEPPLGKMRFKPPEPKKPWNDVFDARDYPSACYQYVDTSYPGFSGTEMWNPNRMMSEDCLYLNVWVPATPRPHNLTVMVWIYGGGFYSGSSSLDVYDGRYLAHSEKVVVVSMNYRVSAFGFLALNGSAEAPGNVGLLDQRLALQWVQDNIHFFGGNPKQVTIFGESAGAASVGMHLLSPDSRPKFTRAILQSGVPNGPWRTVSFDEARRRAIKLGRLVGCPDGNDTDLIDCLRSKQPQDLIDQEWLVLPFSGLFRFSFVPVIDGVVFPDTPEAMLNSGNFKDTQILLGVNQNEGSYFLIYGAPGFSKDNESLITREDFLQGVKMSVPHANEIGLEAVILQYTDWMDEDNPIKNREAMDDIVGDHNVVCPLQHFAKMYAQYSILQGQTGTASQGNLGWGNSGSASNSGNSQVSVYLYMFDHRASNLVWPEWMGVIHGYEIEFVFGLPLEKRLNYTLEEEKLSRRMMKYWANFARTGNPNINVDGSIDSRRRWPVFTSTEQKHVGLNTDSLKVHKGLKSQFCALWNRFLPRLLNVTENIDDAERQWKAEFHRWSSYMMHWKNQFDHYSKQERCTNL
T2 sequence (P81908 whole entry): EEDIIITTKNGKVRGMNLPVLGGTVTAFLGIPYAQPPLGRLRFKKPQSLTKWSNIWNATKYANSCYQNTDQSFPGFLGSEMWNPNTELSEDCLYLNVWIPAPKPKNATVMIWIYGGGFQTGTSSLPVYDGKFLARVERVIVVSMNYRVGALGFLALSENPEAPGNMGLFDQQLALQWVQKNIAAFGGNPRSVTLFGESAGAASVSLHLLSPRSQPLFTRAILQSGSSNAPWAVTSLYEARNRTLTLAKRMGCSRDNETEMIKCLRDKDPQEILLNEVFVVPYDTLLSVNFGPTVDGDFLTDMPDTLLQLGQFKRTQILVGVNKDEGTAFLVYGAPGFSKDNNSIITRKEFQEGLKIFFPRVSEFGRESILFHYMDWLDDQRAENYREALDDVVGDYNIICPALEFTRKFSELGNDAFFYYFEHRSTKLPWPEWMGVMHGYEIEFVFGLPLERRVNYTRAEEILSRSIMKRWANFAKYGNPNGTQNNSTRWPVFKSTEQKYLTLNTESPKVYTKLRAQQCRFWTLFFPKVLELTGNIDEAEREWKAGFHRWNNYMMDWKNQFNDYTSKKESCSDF

As a reminder, the IC50 is the point on the concentration scale where inhibition reaches its midpoint. Broadly, the inhibition is the change of the read-out against control, counted positive when it falls. Consider `COc1cc(/C=N/NC(=O)Cc2c[nH]c3ccccc23)ccc1O` [3q, N’-[(E)-(4-hydroxy-3-methoxyphenyl)methylidene]-2-(1H-indol-3-yl)acetohydrazide], for which the “DPPH Activity” value in experiment [1] worked out at 20.40 ± 0.83%. Further, the IC50 in the experiment on CCL-1 cells is 170 ± 14 µM. The IC50 with SH-SY5Y cells was determined as 141 ± 8.8 µM. Further, in experiment [2], the “ABTS Activity” value is listed as at least 100% and the IC50 was determined as 2380 ± 70 µM. In addition, the FRAP in experiment [3] is 15.60 ± 0.90 μMTE. In addition, the IC50 in the experiment on Neuro-2a cells amounted to 254 ± 13.7 µM. Moreover, in experiment [4], the inhibition at 1000 µM stood at 12.8% and the IC50 is over 1000 µM. For the same compound, in [5], the “Absorbance Day 1” value stood at 0.76 ± 0.03, the “Absorbance Day 2” value came out at 0.77 ± 0.08, the “Absorbance Day 3” value worked out at 0.79 ± 0.03 and the “Absorbance Day 4” value is 0.84 ± 0.05. Further, in experiment [5], the “Absorbance Day 5” value is listed as 0.91 ± 0.09. Also, in experiment [6], the inhibition at 1000 µM was determined as 13.9% and the IC50 was over 1000 µM.
As to `O=S(=O)(N/N=C/c1c[nH]c2ccc(OCc3ccccc3)cc12)c1ccccc1` [5k], the “DPPH Activity” value in experiment [1] is 47.18 ± 1.14%. Further, the IC50 in the experiment on CCL-1 cells is 321 ± 16.2 µM. The IC50 in the experiment with SH-SY5Y cells was found to be 135 ± 14 µM. Also, in experiment [2], the “ABTS Activity” value is reported as at least 100% and the 50% inhibitory concentration (IC50) turned out to be 2570 ± 130 µM. For the same compound, the FRAP in experiment [3] worked out at 22.52 ± 1.29 μMTE. Besides, the concentration for half-maximal inhibition (IC50) with Neuro-2a cells stood at 77.7 ± 6.9 µM. In experiment [4], the inhibition at 1000 µM worked out at 35.4% and the IC50 is over 1000 µM. In [5], the “Absorbance Day 1” value is listed as 0.80 ± 0.04, the “Absorbance Day 2” value came out at 0.80 ± 0.09, the “Absorbance Day 3” value came to 0.83 ± 0.05 and the “Absorbance Day 4” value turned out to be 0.84 ± 0.08. The “Absorbance Day 5” value in [5] is on record as 0.87 ± 0.09. Moreover, in experiment [6], the inhibition at 1000 µM is 4.97% and the half-inhibitory concentration (IC50) is over 1000 µM.
Regarding `COc1ccc(/C=N/NS(=O)(=O)c2ccccc2)cc1OC` [5i, N’-[(E)-(3,4-dimethoxyphenyl)methylidene]benzenesulfonohydrazide], the “DPPH Activity” value in experiment [1] amounted to 16.21 ± 3.01%. The IC50 in the experiment with CCL-1 cells was 147 µM. Moreover, in the experiment on SH-SY5Y cells, the IC50 was determined as 40.3 ± 6.1 µM. In addition, in experiment [2], the “ABTS Activity” value was 65.29 ± 2.34% and the IC50 stood at 3740 ± 50 µM. Also, the FRAP in experiment [3] is reported as 14.67 ± 0.81 μMTE. Further, in the experiment on Neuro-2a cells, the concentration for half-maximal inhibition (IC50) worked out at 109 ± 5.1 µM. Further, in experiment [4], the inhibition at 1000 µM was 2.63% and the half-inhibitory concentration (IC50) is over 1000 µM. Moreover, in experiment [5], the “Absorbance Day 1” value amounted to 0.81 ± 0.08, the “Absorbance Day 2” value is 0.83 ± 0.01, the “Absorbance Day 3” value is on record as 0.83 ± 0.09 and the “Absorbance Day 4” value stood at 0.81 ± 0.02. Besides, the “Absorbance Day 5” value in experiment [5] is reported as 0.83 ± 0.03. In experiment [6], the inhibition at 1000 µM was determined as 7.67 ± 0.99% and the IC50 is over 1000 µM.
For `COc1ccc(C(=O)N/N=C/C2CCN(Cc3ccccc3)CC2)cc1` [3d, N’-[(E)-(1-benzylpiperidin-4-yl)methylidene]-4-methoxybenzohydrazide], in [1], the “DPPH Activity” value is 40.80 ± 3.10%. The IC50 with CCL-1 cells came to 220 µM. Also, the IC50 with SH-SY5Y cells came out at 122 ± 9.2 µM. For the same compound, in experiment [2], the “ABTS Activity” value is given as at least 100% and the midpoint of inhibition, the IC50, lay at 1050 ± 40 µM. Further, the FRAP in [3] was 15.87 ± 1.41 μMTE. Moreover, in the experiment on Neuro-2a cells, the IC50 is over 300 µM. Also, in [4], the inhibition at 1000 µM was 81.2% and the IC50 amounted to 9.77 ± 0.76 µM. In experiment [4] (IC50(BChE)/IC50(AChE)), the “SI AChE” value stood at 20.19. In experiment [5], the “Absorbance Day 1” value came out at 0.85 ± 0.02, the “Absorbance Day 2” value worked out at 0.86 ± 0.02, the “Absorbance Day 3” value is recorded as 0.88 ± 0.05 and the “Absorbance Day 4” value was 0.85 ± 0.07. The “Absorbance Day 5” value in [5] worked out at 0.84 ± 0.09. Moreover, in experiment [6], the inhibition at 1000 µM is 72.9% and the IC50 turned out to be 197 ± 18.7 µM.
Take `Cc1ccc(S(=O)(=O)N/N=C/c2cn(Cc3ccccc3)c3ccccc23)cc1` [5g, N’-[(E)-(1-benzyl-1H-indol-3-yl)methylidene]-4-methylbenzenesulfonohydrazide]: in [1], the “DPPH Activity” value is 45.72 ± 1.38%. Besides, the IC50 with CCL-1 cells is 50.7 ± 3.6 µM. The IC50 in the experiment with SH-SY5Y cells worked out at 92.1 ± 9.3 µM. Besides, in [2], the “ABTS Activity” value is recorded as at least 100% and the IC50 amounted to 2080 ± 100 µM. Besides, the FRAP in experiment [3] was determined as 15.87 ± 1.13 μMTE. The 50% inhibitory concentration (IC50) in the experiment on Neuro-2a cells was found to be 135 ± 10.9 µM. Besides, in experiment [4], the inhibition at 1000 µM came to 2.18% and the IC50 is over 1000 µM. For the same compound, in experiment [5], the “Absorbance Day 1” value came to 0.82 ± 0.04, the “Absorbance Day 2” value came to 0.87 ± 0.09, the “Absorbance Day 3” value is listed as 0.88 ± 0.09 and the “Absorbance Day 4” value worked out at 0.87 ± 0.05. Besides, in [5], the “Absorbance Day 5” value is reported as 0.88 ± 0.03. For the same compound, in experiment [6], the inhibition at 1000 µM worked out at 40.6% and the IC50 is over 1000 µM.
As to `Cc1ccc(S(=O)(=O)N/N=C/c2c[nH]c3ccc(OCc4ccccc4)cc23)cc1` [5j, N’-{(E)-[5-(benzyloxy)-1H-indol-3-yl]methylidene}-4-methylbenzenesulfonohydrazide], the concentration for half-maximal inhibition (IC50) in the experiment on CCL-1 cells worked out at 41.2 ± 4.2 µM. Moreover, the concentration for half-maximal inhibition (IC50) in the experiment with SH-SY5Y cells came out at 33.1 ± 0.1 µM. For the same compound, in [2], the “ABTS Activity” value is on record as at least 100% and the IC50 is 2180 ± 160 µM. Further, the FRAP in experiment [3] is 18.59 ± 2.28 μMTE. Moreover, the IC50 in the experiment on Neuro-2a cells amounted to 65.4 ± 0.1 µM. Also, in experiment [4], the inhibition at 1000 µM turned out to be 13.2% and the IC50 is over 1000 µM. Besides, in [5], the “Absorbance Day 1” value was found to be 0.83 ± 0.01, the “Absorbance Day 2” value is listed as 0.83 ± 0.08, the “Absorbance Day 3” value is recorded as 0.84 ± 0.02 and the “Absorbance Day 4” value is on record as 0.83 ± 0.05. In experiment [5], the “Absorbance Day 5” value was determined as 0.82 ± 0.02. Also, in experiment [6], the inhibition at 1000 µM worked out at 56.9% and the IC50 is 865 ± 159 µM. Moreover, in [6] (IC50(AChE)/IC50(BChE)), the “SI BChE” value is 1.15.
As for `COc1cc(/C=N/NC(=O)c2ccc(O)cc2O)ccc1O` [3r, 2,4-dihydroxy-N’-[(E)-(4-hydroxy-3-methoxyphenyl)methylidene]benzohydrazide], in the experiment with CCL-1 cells, the IC50 was over 300 µM. Moreover, the concentration for half-maximal inhibition (IC50) in the experiment with SH-SY5Y cells came to 156 ± 11.1 µM. Also, in [2], the “ABTS Activity” value is 91.41 ± 0.47% and the IC50 came to 2500 ± 230 µM. The FRAP in [3] is given as 14.30 ± 0.56 μMTE. The IC50 in the experiment with Neuro-2a cells is over 300 µM. Further, the half-maximal inhibitory concentration (IC50) in experiment [4] was over 1000 µM. In experiment [5], the “Absorbance Day 1” value is given as 0.80 ± 0.04, the “Absorbance Day 2” value turned out to be 0.81 ± 0.01, the “Absorbance Day 3” value is 0.82 ± 0.02 and the “Absorbance Day 4” value turned out to be 0.87 ± 0.09. Further, the “Absorbance Day 5” value in experiment [5] is recorded as 0.86 ± 0.09. In addition, in experiment [6], the inhibition at 1000 µM came to 16.9% and the IC50 is over 1000 µM.
In the case of `Cc1cc(C(C)(C)C)c(O)c(C(C)(C)C)c1` [BHT, butylated hydroxytoluene, reference compound], in [1], the “DPPH Activity” value amounted to 7.78 ± 0.77%. In experiment [2], the “ABTS Activity” value is given as 29.53 ± 1.65% and the IC50 is over 5000 µM. In addition, the FRAP in experiment [3] is 15.79 ± 0.58 μMTE. In addition, in experiment [5], the “Absorbance Day 1” value was found to be 0.74 ± 0.07, the “Absorbance Day 2” value was determined as 0.77 ± 0.03, the “Absorbance Day 3” value was determined as 0.78 ± 0.06 and the “Absorbance Day 4” value is recorded as 0.80 ± 0.06. The “Absorbance Day 5” value in [5] stood at 0.81 ± 0.09.
